Legend:
opioid receptors = experiment: single dose binding assays on opioid receptors; conditions: single dose 10^−5 M
IGF1 levels = IGF1 levels in rats; assay type: in vivo, rat
SSTR5 = SSTR5 (Homo sapiens, UniProt P35346); experiment: SSTR5 phosphorylation in HEK293 transfected cells (anti-pT333); assay type: cell-based; parameters: expressed in transfected cells; conditions: 10 min at 37° C.
Text: FIG. 9—Agonist-selective SSTR5 phosphorylation in HEK293 transfected cells. (A) Schematic representation of the human SSTR5 receptor indicating all potential phosphate acceptor site within the carboxyl-terminal tail. Epitope of the phosphosite-specific antibodies are marked (-P) . . . […] (C) Blots were subsequently stripped and reprobed with anti-HA antibody to confirm equal loading of the gels. Blots shown are representative of three independent experiments. The positions of molecular mass markers are indicated on the left (in kDa).
Finally, the SSTR5 pT333 phosphosite was only partially affected by all tested compounds, with Pasireotide showing the most pronounced effect (FIG. 9B, C).

[1] = system: primary cultures of rat anterior pituitary cells; experiment: Inhibition of GHRH-stimulated GH release in vitro; assay type: cell-based; conditions: rat anterior pituitary primary cell cultures
Text: FIG. 4. Inhibition of GHRH-stimulated GH release in vitro using primary cultures of rat anterior pituitary cells.
Results are expressed as mean values±SD of 3 experiments.

SSTR2 = SSTR2 (Homo sapiens, UniProt P30874); experiment: SSTR binding affinity (Table 1); parameters: expressed in transfected cells; host or cells: HEK293 co-expressing GIRK2-GFP
Sequence of SSTR2 (P30874 whole entry): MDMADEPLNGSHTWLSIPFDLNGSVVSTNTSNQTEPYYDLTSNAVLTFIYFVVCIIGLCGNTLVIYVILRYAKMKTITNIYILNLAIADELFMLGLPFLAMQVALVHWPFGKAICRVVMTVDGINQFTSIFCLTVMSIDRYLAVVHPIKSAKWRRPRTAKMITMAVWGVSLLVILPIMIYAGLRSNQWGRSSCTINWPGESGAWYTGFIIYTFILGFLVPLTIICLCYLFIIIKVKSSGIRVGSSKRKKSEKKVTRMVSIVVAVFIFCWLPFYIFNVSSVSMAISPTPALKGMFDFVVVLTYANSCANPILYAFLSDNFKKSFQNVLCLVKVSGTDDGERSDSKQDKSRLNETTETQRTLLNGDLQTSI
Text: IC50 values are from one representative experiment. Confidence interval from 3 independent experiments (Table 1).

SSTR3-tGFP = SSTR3-tGFP (Homo sapiens, UniProt P32745); experiment: Internalization of SSTR3 in U2OS transfected cells; assay type: cell-based; parameters: expressed in transfected cells; host or cells: U2OS
Sequence of SSTR3-tGFP (P32745 whole entry): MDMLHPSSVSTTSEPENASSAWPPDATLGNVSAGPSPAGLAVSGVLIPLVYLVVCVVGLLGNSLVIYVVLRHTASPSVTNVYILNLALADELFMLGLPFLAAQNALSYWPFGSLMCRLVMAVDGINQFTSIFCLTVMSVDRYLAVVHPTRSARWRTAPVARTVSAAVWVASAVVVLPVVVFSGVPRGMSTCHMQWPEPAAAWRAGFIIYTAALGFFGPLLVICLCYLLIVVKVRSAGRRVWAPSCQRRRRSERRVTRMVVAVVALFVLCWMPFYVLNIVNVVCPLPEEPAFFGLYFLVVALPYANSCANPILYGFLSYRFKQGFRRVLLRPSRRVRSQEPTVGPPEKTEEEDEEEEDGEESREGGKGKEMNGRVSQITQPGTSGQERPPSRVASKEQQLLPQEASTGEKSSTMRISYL
Text: HEK293 cells transfected with human SSTRs, and U20S cells transfected with human GFP-tagged receptors (SSTR2-tGFP, SSTR3-tGFP, SSTR5-tGFP).

Sequence of SSTR5 (P35346 whole entry): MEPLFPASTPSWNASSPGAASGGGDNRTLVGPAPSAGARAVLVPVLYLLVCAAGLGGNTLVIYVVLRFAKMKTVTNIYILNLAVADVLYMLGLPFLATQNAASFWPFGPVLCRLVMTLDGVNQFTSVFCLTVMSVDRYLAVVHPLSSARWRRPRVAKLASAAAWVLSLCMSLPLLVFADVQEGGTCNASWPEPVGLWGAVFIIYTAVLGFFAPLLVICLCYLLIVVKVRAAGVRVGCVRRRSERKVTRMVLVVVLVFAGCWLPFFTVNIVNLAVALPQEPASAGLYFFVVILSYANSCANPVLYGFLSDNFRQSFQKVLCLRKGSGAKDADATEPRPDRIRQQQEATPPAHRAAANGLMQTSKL

SMILES: COc1cc2cccc(OC)c2cc1C[C@H]1NC(=O)[C@H](Cc2ccc(O)cc2)NC(=O)[C@@H]2C[C@@H](OC(=O)NCCN)CN2C(=O)[C@H](Cc2ccccc2)NC(=O)[C@H](Cc2ccc(OCc3ccccc3)cc2)NC(=O)[C@H](CCCCN)NC1=O [ITF2984, (3S,6R,9S,12S,15S,19R,20aS)-9-(4-aminobutyl)-15-benzyl-12-(4-(benzyloxy)benzyl)-6-((3,8-dimethoxynaphthalen-2-yl)methyl)-3-(4-hydroxybenzyl)-1,4,7,10,13,16-hexaoxoicosahydropyrrolo[1,2-a][1,4,7,10,13,16]hexaazacyclooctadecin-19-yl (2-aminoethyl)carbamate]
- replacement of agonists (opioid receptors): fully replace agonists
- IGF1 levels (IGF1 levels): decreased IGF1 levels
- phosphorylation of SSTR5 (pT333) (SSTR5): partial phosphorylation
- inhibition of GH release [1]: potently inhibited GH release
- IC50 (SSTR2): nanomolar range
- affinity compared to octreotide (SSTR2; compared to octreotide): lower affinity
- Mean of internalized fluorescence, SSTR3 (SSTR3-tGFP; 1 μM): 61.1 AU
- rank as SSTR3-tGFP internalization inducer (SSTR3-tGFP; 1 μM): most potent inducer of receptor internalization
- Mean of internalized fluorescence, SSTR3 (SSTR3-tGFP; 10 μM): 62.5 AU

From US20250057913A1, “USE OF SOMATOSTATIN AGONIST IN THE TREATMENT OF SSTR3 EXPRESSING TUMORS” (ITALFARMACO SPA, priority 2021, published 2025)
